Experiment [1] has as its target T1, Discoidin domain-containing receptor 2 (Homo sapiens) (UniProt Q16832).
T1 sequence (whole entry): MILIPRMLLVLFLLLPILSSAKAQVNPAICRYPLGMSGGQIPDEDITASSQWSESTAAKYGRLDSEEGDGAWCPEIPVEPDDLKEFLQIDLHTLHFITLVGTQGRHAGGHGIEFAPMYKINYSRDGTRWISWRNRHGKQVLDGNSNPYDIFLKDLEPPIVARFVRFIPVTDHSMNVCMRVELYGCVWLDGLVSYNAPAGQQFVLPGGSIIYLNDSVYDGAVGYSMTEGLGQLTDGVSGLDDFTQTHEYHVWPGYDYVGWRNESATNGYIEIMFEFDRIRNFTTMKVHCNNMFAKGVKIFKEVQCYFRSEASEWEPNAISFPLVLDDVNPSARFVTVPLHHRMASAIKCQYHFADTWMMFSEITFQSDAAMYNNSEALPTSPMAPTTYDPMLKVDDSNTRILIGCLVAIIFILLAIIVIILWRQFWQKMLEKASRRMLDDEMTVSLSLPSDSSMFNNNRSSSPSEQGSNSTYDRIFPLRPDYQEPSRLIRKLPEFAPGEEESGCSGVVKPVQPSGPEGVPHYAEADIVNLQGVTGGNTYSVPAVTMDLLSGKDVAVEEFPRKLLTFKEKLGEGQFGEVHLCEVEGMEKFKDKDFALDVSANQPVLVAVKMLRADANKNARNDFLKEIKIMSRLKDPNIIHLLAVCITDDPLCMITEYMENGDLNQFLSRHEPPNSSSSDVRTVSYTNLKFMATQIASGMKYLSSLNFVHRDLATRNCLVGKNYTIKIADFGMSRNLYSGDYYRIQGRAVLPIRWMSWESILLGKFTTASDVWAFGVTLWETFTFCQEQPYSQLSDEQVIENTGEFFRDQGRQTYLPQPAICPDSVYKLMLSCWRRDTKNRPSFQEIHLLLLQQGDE
Briefly: Residual activity of DDR2 at 1 uM by microplate scintillation counting.

The target in experiment [2] is Ephrin type-A receptor 2 (Homo sapiens) (UniProt P29317). Briefly: Residual activity of EPHA2 at 1 uM by microplate scintillation counting.
Ephrin type-A receptor 2 (Homo sapiens), sequence (P29317 whole entry): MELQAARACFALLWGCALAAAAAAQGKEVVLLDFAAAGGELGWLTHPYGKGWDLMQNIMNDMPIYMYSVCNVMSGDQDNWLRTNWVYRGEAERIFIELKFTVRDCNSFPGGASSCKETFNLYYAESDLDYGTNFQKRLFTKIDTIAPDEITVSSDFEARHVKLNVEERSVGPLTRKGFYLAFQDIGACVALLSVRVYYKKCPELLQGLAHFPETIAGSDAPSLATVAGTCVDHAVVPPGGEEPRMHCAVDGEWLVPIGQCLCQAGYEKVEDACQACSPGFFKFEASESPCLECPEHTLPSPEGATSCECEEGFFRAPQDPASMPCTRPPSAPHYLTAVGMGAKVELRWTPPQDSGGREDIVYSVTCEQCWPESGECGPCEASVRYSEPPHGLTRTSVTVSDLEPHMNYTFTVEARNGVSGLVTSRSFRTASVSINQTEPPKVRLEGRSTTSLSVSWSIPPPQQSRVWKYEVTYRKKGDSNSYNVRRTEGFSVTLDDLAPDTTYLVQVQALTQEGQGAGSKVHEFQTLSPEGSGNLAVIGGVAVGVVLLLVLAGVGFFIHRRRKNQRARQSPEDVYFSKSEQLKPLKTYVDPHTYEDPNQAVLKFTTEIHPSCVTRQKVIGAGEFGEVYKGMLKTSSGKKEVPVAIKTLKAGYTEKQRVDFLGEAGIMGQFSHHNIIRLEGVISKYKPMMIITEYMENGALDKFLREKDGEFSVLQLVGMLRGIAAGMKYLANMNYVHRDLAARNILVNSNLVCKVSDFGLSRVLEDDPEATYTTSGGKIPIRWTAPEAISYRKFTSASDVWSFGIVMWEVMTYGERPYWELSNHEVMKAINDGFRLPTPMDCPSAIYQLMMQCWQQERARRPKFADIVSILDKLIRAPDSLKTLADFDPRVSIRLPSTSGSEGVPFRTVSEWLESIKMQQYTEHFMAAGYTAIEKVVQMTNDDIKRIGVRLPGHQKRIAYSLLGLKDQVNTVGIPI
Experiment [3] deals with Mitogen-activated protein kinase 1 (Homo sapiens) (UniProt P28482). Briefly: Residual activity of ERK2 at 1 uM by microplate scintillation counting.
Experiment [4] addresses T2, Inhibitor of nuclear factor kappa-B kinase subunit beta (Homo sapiens) (UniProt O14920).
T2 sequence (whole entry): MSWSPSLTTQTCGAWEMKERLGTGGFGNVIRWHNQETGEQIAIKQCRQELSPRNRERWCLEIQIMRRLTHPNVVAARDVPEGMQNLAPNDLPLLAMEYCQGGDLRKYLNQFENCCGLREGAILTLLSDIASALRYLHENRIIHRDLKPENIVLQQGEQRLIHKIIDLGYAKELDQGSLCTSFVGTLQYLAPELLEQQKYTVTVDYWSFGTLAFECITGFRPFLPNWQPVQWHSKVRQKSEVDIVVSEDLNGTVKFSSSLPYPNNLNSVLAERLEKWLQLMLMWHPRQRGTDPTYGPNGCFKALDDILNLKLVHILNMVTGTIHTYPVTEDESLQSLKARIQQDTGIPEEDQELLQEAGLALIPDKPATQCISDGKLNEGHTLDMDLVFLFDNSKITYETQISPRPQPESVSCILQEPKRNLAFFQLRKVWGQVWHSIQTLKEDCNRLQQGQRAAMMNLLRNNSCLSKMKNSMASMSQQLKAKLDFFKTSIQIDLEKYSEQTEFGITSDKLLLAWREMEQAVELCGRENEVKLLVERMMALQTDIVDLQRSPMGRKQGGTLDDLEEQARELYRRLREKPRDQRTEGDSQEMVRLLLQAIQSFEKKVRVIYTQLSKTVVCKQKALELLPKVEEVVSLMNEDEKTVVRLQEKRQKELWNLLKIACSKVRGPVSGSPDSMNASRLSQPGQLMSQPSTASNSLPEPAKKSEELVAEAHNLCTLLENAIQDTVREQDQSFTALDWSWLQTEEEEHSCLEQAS
Briefly: Residual activity of IKK-beta at 1 uM by microplate scintillation counting.

The target of experiment [5] is Mitogen-activated protein kinase 10 (Homo sapiens) (UniProt P53779). Briefly: Residual activity of JNK3 at 1 uM by microplate scintillation counting.
Experiment [6] addresses T3, Mitogen-activated protein kinase 12 (Homo sapiens) (UniProt P53778).
T3 sequence (whole entry): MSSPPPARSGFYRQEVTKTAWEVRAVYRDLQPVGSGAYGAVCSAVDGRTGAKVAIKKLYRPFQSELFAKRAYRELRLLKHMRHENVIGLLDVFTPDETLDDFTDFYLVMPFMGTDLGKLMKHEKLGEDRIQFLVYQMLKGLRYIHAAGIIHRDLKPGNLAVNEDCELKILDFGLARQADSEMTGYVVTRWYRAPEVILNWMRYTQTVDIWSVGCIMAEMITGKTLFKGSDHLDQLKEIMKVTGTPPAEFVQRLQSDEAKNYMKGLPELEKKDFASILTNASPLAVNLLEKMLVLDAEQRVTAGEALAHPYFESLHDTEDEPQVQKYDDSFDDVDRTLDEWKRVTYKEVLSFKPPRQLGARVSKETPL
Briefly: Residual activity of p38-gamma at 1 uM by microplate scintillation counting.

Experiment [7] concerns the target Casein kinase I isoform delta (Homo sapiens) (UniProt P48730). The experiment in a line: Residual activity of CK1delta at 10 uM by microplate scintillation counting.
Experiment [8] addresses Serine/threonine-protein kinase WNK2 (Homo sapiens) (UniProt Q9Y3S1). Briefly: Residual activity of WNK2 at 0.1 uM by microplate scintillation counting.
For experiment [9], the target named is ALK tyrosine kinase receptor (Homo sapiens) (UniProt Q9UM73). The experiment in a line: Residual activity of ALK at 1 uM by microplate scintillation counting.
ALK tyrosine kinase receptor (Homo sapiens), sequence (Q9UM73 19-1620 limits assumed): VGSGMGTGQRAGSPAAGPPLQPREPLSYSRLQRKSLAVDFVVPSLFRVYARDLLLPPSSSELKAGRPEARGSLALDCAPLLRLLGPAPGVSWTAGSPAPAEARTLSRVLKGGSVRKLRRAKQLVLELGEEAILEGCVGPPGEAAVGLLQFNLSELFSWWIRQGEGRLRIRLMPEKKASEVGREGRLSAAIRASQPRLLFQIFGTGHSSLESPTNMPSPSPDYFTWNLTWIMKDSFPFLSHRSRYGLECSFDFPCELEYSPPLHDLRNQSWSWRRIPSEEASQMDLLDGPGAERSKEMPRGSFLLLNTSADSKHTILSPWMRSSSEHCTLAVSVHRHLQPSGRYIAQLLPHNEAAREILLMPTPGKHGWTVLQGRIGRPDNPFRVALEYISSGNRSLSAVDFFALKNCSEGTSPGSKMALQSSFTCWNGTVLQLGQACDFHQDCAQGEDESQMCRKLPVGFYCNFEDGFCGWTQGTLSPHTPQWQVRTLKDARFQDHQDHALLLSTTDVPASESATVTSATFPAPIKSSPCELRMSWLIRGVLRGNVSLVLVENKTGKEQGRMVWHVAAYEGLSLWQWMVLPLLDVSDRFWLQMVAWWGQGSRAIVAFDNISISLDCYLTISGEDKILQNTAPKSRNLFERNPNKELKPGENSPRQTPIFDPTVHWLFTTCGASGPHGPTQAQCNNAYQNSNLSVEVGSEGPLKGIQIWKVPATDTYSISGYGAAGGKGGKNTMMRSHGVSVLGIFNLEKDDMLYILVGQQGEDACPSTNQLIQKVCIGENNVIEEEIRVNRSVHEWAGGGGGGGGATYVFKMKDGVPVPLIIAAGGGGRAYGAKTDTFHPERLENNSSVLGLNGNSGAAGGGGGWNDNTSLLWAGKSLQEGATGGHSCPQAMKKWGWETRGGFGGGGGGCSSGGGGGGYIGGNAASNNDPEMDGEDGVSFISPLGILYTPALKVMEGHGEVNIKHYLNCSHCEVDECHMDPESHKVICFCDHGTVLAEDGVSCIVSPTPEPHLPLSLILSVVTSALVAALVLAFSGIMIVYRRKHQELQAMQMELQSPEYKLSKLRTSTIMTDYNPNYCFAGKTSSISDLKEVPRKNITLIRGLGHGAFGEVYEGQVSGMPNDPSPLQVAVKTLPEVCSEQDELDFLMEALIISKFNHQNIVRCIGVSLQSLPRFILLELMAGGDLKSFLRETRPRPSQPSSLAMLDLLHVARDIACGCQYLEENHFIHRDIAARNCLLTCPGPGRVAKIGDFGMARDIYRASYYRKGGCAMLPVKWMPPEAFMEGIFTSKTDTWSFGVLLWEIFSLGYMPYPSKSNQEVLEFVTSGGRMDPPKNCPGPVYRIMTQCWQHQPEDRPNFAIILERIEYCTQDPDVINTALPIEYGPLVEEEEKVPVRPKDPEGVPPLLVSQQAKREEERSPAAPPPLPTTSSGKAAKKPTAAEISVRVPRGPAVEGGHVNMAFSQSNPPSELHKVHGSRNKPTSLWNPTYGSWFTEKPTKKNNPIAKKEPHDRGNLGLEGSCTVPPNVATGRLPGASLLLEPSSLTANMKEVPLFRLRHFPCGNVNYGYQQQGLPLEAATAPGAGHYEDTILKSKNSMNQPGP
For experiment [10], the target named is Serine/threonine-protein kinase 24 (Homo sapiens) (UniProt Q9Y6E0). Briefly: Residual activity of MST3 at 10 uM by microplate scintillation counting.
Serine/threonine-protein kinase 24 (Homo sapiens), sequence (Q9Y6E0 whole entry, looked up): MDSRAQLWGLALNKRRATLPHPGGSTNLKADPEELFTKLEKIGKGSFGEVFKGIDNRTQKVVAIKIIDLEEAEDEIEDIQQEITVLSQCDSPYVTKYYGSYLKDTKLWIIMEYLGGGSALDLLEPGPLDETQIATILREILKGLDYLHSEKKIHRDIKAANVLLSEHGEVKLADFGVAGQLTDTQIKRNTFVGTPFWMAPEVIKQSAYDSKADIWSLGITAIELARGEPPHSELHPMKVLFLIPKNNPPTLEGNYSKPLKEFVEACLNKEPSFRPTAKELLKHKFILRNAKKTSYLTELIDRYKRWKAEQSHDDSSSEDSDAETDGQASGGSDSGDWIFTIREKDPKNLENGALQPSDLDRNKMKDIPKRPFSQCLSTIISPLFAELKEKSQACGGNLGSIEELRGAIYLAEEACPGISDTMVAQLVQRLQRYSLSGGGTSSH
Experiment [11] addresses Serine/threonine-protein kinase PAK 1 (Homo sapiens) (UniProt Q13153). The experiment in a line: Residual activity of PAK1 at 10 uM by microplate scintillation counting.
Experiment [12] concerns the target Platelet-derived growth factor receptor beta (Homo sapiens, UniProt P09619). The experiment in a line: Residual activity of PDGFRbeta at 10 uM by microplate scintillation counting.
Experiment [13] concerns the target RAC-beta serine/threonine-protein kinase (Homo sapiens) (UniProt P31751). The experiment in a line: Residual activity of AKT2 at 0.1 uM by microplate scintillation counting.
The target of experiment [14] is CDK1/Cyclin A (Homo sapiens) (UniProt P06493+P20248). Briefly: Residual activity of CDK1/Cyclin A at 0.1 uM by microplate scintillation counting. The class given is protein-complex assay.
Experiment [15] deals with Serine/threonine-protein kinase Nek7 (Homo sapiens) (UniProt Q8TDX7). The experiment in a line: Residual activity of NEK7 at 0.1 uM by microplate scintillation counting.
Serine/threonine-protein kinase Nek7 (Homo sapiens), sequence (Q8TDX7 whole entry, looked up): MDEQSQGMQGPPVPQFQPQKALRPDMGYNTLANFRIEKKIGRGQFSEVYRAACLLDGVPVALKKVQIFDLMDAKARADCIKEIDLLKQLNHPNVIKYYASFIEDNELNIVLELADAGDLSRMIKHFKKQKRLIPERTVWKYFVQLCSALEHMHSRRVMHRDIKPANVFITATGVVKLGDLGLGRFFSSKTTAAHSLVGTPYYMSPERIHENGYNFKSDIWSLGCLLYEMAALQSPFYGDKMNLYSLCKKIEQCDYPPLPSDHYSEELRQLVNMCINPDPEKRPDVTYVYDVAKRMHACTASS
Experiment [16] has as its target Ribosomal protein S6 kinase alpha-4 (Homo sapiens) (UniProt O75676). The experiment in a line: Residual activity of RPS6KA4 at 0.1 uM by microplate scintillation counting.

Each structure is given as a SMILES string.

Platelet-derived growth factor receptor beta, sequence (P09619 whole entry): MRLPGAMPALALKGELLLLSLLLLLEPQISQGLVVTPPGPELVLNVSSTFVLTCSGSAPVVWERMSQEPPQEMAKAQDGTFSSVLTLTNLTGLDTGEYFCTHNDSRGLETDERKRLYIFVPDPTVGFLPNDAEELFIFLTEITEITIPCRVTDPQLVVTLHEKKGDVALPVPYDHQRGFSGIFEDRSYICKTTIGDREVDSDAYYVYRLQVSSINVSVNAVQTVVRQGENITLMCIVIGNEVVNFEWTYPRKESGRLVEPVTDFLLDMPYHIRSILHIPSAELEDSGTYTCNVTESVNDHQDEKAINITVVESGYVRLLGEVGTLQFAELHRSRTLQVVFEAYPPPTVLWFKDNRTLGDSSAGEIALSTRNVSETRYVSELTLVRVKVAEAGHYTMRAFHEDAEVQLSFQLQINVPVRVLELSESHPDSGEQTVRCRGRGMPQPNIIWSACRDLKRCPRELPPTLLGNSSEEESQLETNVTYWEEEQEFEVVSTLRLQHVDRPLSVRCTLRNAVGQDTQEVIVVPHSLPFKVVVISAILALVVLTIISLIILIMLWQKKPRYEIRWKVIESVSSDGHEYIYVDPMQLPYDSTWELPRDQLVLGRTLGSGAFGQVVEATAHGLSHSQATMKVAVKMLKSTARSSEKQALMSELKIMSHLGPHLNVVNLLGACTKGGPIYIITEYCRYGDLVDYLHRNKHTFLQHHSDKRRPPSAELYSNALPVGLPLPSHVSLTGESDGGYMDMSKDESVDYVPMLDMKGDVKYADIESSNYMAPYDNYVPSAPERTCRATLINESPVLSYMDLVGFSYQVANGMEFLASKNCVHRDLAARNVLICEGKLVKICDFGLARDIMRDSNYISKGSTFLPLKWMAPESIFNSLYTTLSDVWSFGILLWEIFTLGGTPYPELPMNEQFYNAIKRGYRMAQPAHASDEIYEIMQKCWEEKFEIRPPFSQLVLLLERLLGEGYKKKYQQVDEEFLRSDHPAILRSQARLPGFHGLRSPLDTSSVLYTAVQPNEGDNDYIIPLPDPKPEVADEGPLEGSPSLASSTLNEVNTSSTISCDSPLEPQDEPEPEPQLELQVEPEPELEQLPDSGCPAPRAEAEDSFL
RAC-beta serine/threonine-protein kinase (Homo sapiens), sequence (P31751 whole entry): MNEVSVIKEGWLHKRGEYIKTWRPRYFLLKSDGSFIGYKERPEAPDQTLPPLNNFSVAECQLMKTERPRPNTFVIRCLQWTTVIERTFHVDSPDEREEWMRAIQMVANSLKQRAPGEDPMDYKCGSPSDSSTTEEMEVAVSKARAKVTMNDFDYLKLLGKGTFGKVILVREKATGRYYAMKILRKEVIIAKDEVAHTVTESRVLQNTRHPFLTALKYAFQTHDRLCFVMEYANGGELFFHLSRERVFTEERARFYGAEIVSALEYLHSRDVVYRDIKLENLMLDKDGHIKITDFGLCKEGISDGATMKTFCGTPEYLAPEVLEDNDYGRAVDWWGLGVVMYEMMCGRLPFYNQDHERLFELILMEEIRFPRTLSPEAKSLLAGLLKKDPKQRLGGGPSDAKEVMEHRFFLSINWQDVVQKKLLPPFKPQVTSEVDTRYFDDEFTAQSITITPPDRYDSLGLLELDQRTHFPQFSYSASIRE

For the compound `COc1cc2c(Oc3ccc(-c4nc5ccccc5s4)cc3F)ncnc2cc1OCCCN1CCN(C)CC1`, the residual activity came to 88% in [1]; 109% in experiment [2]; 98% in experiment [3]; 88% in [4]; 101% in experiment [5]; 125% in [6]. Besides, the residual activity in experiment [7] is 149%; in experiment [8], 87%; in [9], 178%; in experiment [10] it was 229%; in [11] it was 57%; in experiment [12] it was 33%. The residual activity in experiment [13] amounted to 108%; in [14], 99%; in [15] it was 97%; in experiment [16], 93%.

`COc1cc2c(Oc3ccc(-c4nc5ccccc5s4)cc3)ncnc2cc1OCCCN1CCN(C)CC1`: the residual activity in experiment [1] worked out at 79%; in [2] it was 111%; in [3], 91%; in experiment [4], 86%; in experiment [5] it was 106%; in experiment [6] it was 105%. Further, the residual activity came out at 156% in experiment [7]; 74% in experiment [8]; 171% in experiment [9]; 231% in experiment [10]; 68% in experiment [11]; 21% in [12]. Further, the residual activity in experiment [13] turned out to be 97%; in experiment [14] it was 94%; in experiment [15], 83%; in experiment [16], 91%.

On to `COc1cc2c(Oc3ccc(-c4nc5ccccc5s4)cc3)ncnc2cc1OCCCN1CCCC1`, for which the residual activity is 99% in experiment [1]; 97% in experiment [2]; 82% in [3]; 98% in [4]; 97% in experiment [5]; 112% in experiment [6]. For the same compound, the residual activity in [7] is 133%; in [8], 81%; in [9] it was 169%; in experiment [10] it was 165%; in [11], 69%; in experiment [12], 43%. The residual activity in experiment [13] was 102%; in experiment [14] it was 109%; in experiment [15], 95%; in [16] it was 88%.

Source of the values: ChEMBL document CHEMBL1152560, “Substituted 2-arylbenzothiazoles as kinase inhibitors: hit-to-lead optimization” (Bioorg Med Chem, 2009).
